Measurements from ChEMBL document CHEMBL1133646 (J Med Chem, 2000).

Assays:
Assay type in all cases: functional
Mus musculus [1] = test: Mean day to death of mice at 0 mg/kg/day
Mus musculus [2] = test: Mean day to death of mice at 0.1 mg/kg/day
Mus musculus [3] = test: Survival rate of mice infected with A/Turkey/Mass/76 XA/Beijing/32/92 (H6N2) virus at a dose of 0 mg/kg/day; 1/9 (1 survived out of 9 mice)
Mus musculus [4] = test: Survival rate of mice infected with A/Turkey/Mass/76 XA/Beijing/32/92 (H6N2) virus at a dose of 0.1 mg/kg/day; 7/9 (7 survived out of 9 mice)
Mus musculus [5] = test: Survival rate of mice infected with A/Turkey/Mass/76 XA/Beijing/32/92 (H6N2) virus at a dose of 1.0 mg/kg/day; 9/9 (9 survived out of 9 mice)

For `CCC(CC)[C@H](NC(C)=O)[C@@H]1[C@H](O)[C@@H](C(=O)O)C[C@H]1NC(=N)N` [PERAMIVIR ANHYDROUS], the Mean day (Mus musculus [1]) was 8.8, the Mean day (Mus musculus [2]) was 9 and the Survival (Mus musculus [3]) was 1. The Survival (Mus musculus [4]) was under 7 and the Survival (Mus musculus [5]) was under 9.
